In article PMC13596996 (Cell, 2026):

Tested on: GABAA receptor
Assay: whole-cell voltage-clamp, dose-response, blocked by gabazine
Set-up: species or system Mus musculus

[H]/N=C(/N)NCC(=O)O [GAA, guanidinoacetate]
EC50: 134 µM
